Experimental data: ChEMBL document CHEMBL3886711, “Substituted tetrahydrocarbazole and carbazole carboxamide compounds” (2016)
Where “and” joins values, the source holds several entries; their conditions need not be identical. Identical values can stand only once.

Molecular target: Tyrosine-protein kinase JAK2 (Homo sapiens, UniProt O60674)
Test: Jak2 Tyrosine Kinase Assay: The assays were performed in V-bottom 384-well plates. The final assay volume was 30 μl prepared from 15 μl additions of enzyme and substrates (fluoresceinated peptide and ATP) and test compounds in assay buffer (100 mM HEPES pH 7.4, 10 mM MgCl2, 25 mM beta-glycerolphosphate, […] Brij 35 surfactant and 4 mM DTT). The reaction was initiated by the combination of Jak2

Sequence of Tyrosine-protein kinase JAK2 (O60674 whole entry): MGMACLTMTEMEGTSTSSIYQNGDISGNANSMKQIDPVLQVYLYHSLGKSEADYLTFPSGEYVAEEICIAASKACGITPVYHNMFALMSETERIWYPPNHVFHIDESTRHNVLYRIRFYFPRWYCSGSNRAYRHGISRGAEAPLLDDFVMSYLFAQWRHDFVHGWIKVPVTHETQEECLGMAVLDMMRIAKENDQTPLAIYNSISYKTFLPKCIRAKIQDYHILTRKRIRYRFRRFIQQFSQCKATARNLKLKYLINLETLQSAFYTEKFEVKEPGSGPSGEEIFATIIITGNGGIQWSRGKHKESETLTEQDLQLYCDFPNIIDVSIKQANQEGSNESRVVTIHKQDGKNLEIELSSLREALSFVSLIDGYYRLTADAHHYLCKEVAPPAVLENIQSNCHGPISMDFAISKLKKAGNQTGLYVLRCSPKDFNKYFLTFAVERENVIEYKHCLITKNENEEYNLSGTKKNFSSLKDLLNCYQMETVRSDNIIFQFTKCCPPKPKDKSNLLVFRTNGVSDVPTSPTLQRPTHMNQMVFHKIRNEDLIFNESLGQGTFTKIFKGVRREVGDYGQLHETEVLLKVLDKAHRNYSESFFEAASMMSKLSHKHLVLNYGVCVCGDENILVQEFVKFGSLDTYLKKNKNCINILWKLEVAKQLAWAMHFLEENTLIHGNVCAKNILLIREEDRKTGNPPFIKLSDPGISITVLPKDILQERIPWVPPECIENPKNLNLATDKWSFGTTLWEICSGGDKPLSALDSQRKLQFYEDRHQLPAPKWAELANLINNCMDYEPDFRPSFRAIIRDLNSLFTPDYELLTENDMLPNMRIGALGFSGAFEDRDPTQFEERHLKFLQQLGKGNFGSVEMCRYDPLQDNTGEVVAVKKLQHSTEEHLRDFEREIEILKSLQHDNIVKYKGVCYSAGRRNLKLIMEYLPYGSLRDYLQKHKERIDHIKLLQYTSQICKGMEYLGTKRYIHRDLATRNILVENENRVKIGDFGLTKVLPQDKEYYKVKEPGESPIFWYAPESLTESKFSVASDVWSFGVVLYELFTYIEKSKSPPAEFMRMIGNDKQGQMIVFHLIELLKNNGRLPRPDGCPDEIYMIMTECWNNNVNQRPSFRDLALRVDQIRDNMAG

Row | Compound | IC50
1 | Cc1c(-c2c(F)cc(C(N)=O)c3[nH]c4cc(C(C)(C)O)ccc4c23)cccc1-n1c(=O)[nH]c2c(F)cccc2c1=O | 1700 nM
2 | Cc1c(-c2c(Cl)cc(C(N)=O)c3[nH]c4cc(C(C)(C)O)ccc4c23)cccc1-n1c(=O)cc2c(Cl)cccn2c1=O | 1400 nM and 970 nM
